“Also recorded” adds a separate entry of the source.
Assays:
patients with early AD [1] = test: AFF006 clinical trial: adapted ADAS-cog, adapted ADCS-ADL and Composite score; format: in vivo, human
Excerpt: The present invention provides for the first time an AD treatment that is disease modifying. The effectiveness of the treatment according to the present invention is proven by the parameters required by the drug authorisation authorities, especially the EMEA and the US-FDA. For example, the EMEA guideline for AD treatment requires primary endpoints reflecting the cognitive and the functional domain. Accordingly, a combined (Composite) score is used for the clinical assessment of the present invention. This composite score combines two established scores, one for the cognitive function (ADAS-cog (Alzheimer's Disease Assessment Scale-cognitive subscale)) and one for the functional ability (ADCS-ADL (Alzheimer's Disease Co-operative Study—Activities of Daily Living Inventory)). The adapted ADAS-cog combines items that assess cognitive function. The adapted ADCS-ADL includes items that are sensitive to functional ability. […]
Combined composite according to the present invention: =1.67*Word recall+1.35*Orientation+1.42*Word Recognition+0.55*Recall Instructions+0.81*Spoken Language+1.01*Word Finding+5.42*ONB+0.15*VPAL+0.19*Category Fluency+0.28*Belongings+0.35*Shopping+0.23*Hobbies+0.38*Beverage+0.37*Meal+0.23*Current Events+0.26*TV+0.33*Keeping Appointments+0.37*Travel+0.33*Alone+0.35*Appliance+0.49*Clothes+0.36*Read+0.62*Telephone+0.33*Writing
The primary efficacy variables are the change from baseline (CFB) in cognition as measured by an adapted ADAS-cog, CFB in function as measured by an adapted ADCS-ADL and a combination of CFB in cognition and function as measured by a combined composite:
ADAS-cog and other items included in the adapted ADAS-cog were measured at Visits 1, 2, 3, 5, 6, 7, 8, 9 and 10 or EDV. ADCS-ADL were measured at Visits 2, 5, 6, 7, 8, 9 and 10 or EDV. Items that contributing to the combined primary outcome were measured at Visits 2, 5, 6, 7, 8, 9 and 10 or EDV.
The primary efficacy outcomes all range from 0 to 100. […] Before a composite was calculated, contributing items that are scored in the opposite direction were reversed. […]

BSA = BSA (Bos taurus, UniProt P02769); conditions: pH 7.4; cited from earlier work
BSA, sequence (P02769 25-607): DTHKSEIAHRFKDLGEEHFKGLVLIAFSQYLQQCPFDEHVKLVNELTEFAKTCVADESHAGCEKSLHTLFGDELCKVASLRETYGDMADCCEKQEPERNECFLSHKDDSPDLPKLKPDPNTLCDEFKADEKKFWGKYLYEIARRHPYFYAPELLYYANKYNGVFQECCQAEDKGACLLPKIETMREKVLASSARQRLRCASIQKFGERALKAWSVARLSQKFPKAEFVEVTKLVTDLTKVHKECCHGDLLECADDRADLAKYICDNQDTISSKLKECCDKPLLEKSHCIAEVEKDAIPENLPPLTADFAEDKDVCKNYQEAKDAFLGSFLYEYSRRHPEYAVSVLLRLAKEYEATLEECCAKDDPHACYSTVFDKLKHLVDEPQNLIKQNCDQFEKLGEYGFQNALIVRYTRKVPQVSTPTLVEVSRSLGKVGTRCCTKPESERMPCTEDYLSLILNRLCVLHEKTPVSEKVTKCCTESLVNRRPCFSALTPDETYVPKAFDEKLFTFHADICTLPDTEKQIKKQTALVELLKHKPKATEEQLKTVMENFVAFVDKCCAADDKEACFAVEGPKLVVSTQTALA

amyloid deposits = test: Cerebral amyloid load by immunofluorescence (mAb 3A5) in Tg2576 mice; format: in vivo; conditions: 6 monthly s.c. injections, sacrificed at 14 months of age
patients with early AD [2] = test: AFF006 clinical trial: patient disposition, reason for discontinuation; format: in vivo, human
Description: Data supporting the invention are derived from a randomized clinical trial in early AD patients. The study (AFF006; Eudract: 2009-016504-22) randomized early AD patients into 5 treatment arms. Patients of 2 study arms received either 1 mg aluminium or 2 mg aluminium. In total, 99 early AD patients were enrolled into the 2 study arms. Participation of a given patient lasted 18 months.
AFF006 was conducted as a randomized, placebo-controlled, parallel group, double-blind, multi-center phase II study and assessed the clinical and immunological activity as well as the safety and tolerability of repeated s.c. administrations of i.a. aluminium (different doses) in patients with early AD, as defined in the protocol. It was performed in a total of 6 countries: Austria, France, Germany, Slovakia, Czech Republic and Croatia.
The clinical trial comprised 10 regular outpatient visits and 6 telephone interviews. Up to four weeks before start of treatment, a screening visit (Visit 1) was performed to ensure suitability of the patients for the clinical trial and to establish the patients' baseline characteristics. Following screening, eligible patients were randomly allocated to the treatment groups. After randomization at week 0, patients received 6 injections with either 1 or 2 mg aluminium. Injections were applied s.c. by the investigator at weeks 0, 4, 8, 12, 40 and 65 (Visit 2, 3, 4, 5, 7 and 9).
adverse events (AEs) and serious adverse events (SAEs) (number of patients who withdrew due to AEs; reason for withdrawal)

Ovalbumin = target: T1, Ovalbumin (Gallus gallus, UniProt P01012); conditions: pH 7.4; cited from earlier work
T1 sequence (P01012 1-386): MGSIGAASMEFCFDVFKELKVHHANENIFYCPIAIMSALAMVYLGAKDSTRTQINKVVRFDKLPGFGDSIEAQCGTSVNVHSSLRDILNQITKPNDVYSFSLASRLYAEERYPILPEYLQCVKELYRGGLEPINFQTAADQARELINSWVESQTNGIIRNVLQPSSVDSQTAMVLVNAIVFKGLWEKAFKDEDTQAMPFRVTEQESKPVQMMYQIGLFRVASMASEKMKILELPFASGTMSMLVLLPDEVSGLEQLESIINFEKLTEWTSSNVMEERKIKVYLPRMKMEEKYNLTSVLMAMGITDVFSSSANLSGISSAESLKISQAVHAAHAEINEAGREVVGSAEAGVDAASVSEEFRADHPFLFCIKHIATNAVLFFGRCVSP

human Aβ1-40/42 = test: ELISA reactivity of vaccination induced Abs towards human Aβ1-40/42 in Tg2576-mice; format: in vivo; conditions: 6x s.c. at 4-week intervals, plasma at sacrification, background 1/100, FIG. 6B
Description: Alum doses used were equivalent to 2 mg/ml. Vaccination induced Abs were measured in plasma samples taken at sacrification (SeqID 1 (n=10), SeqID (n=8), KLH-Alum (n=10) and Alum only (n=8)). Samples were analyzed for their concentration of IgG Abs against specific peptides. Values depicted are the titer calculated as OD max/2 (at 405 nm) plus SEM. […] Background for this assay was set to 1/100, indicated by black lines and an asterisk in A+B.
Substrates used include human (BACHEM, CH) Aβ1-40/42 (at 5 μg/ml), KLH (1 μg/ml) and peptide-Bovine serum albumin (BSA) conjugates (SeqID 1 and SeqID 2, 1 μM). Optical density (OD) was measured at 405 nm using a micro-well reader (Tecan, CH). ODmax/2 was calculated.
To test the immunogenicity of two Aβ targeting vaccines SeqID 1-KLH-Alum and SeqID 2-KLH Alum in comparison to KLH-Alum and Alum (Aluminium-oxyhydroxide) only, Tg2576-mice were injected 6×, s.c., at 4-week intervals with either conjugate-vaccine containing 30 μg net peptide, equivalent doses of KLH formulated with Alum or Alum only.

aluminium oxyhydroxide
parameters informing on the progression of the disease (change in Composite score) (patients with early AD [1]; 2 mg group vs 1 mg group, all patients, FIG. 1): compares favourably
Adapted ADAS-cog: disease progression (patients with early AD [1]; 2 mg group, over 18 months, FIG. 3): Slowing of disease progression
effect on disease progression (Composite score) in mild population (patients with early AD [1]; mild population (baseline MMSE score of 24 and higher), 2 mg vs 1 mg, FIG. 2): most pronounced in the cohort of patients in earlier disease stages
maximal binding capacity to BSA (pI 4.9) (BSA): 2.2±0.1 mg protein/mg aluminum
cerebral amyloid load (relative brain area covered by amyloid deposits) (amyloid deposits; IF-staining mAb 3A5, FIG. 8, listed as Alum): did not significantly alter amyloid deposition; also recorded: slight but insignificant reduction in Aβ deposition
cerebral amyloid load (relative brain area covered by amyloid deposits) (amyloid deposits; IF-staining mAb 3A5, FIG. 8, listed as aluminium-oxyhydroxide): without significantly changing cerebral Aβ levels
Reason for Discontinuation from the Study: Death: subjects % (patients with early AD [2]; 1 mg s.c., N = 48): (4.2%)
Reason for Discontinuation from the Study: Death: subjects n (patients with early AD [2]; 1 mg s.c., N = 48): 2
Reason for Discontinuation from the Study: Death: subjects % (patients with early AD [2]; 2 mg s.c., N = 51): (0.0%)
Reason for Discontinuation from the Study: Death: subjects n (patients with early AD [2]; 2 mg s.c., N = 51): 0
maximal binding capacity to Ovalbumin (pI 4.6) (Ovalbumin): 1.6±0.1 mg protein/mg aluminum
Abs reactivity towards human Aβ1-40/42 (human Aβ1-40/42): did not elicit signals above background; also recorded: do not show reactivity above background

Reference: patent publication US10646565B2, “Treatment of alzheimer'S disease (AD) with an aluminum salt” (AFFIRIS AG, priority 2014, dated 2020)
